Results from patent US20030180398A1, “Composition for treating gastric ulcer and a process for preparing the same” (priority 2002, published 2003).

Experiments:
[1] = system: pyloric ligation induced ulcer; experiment: Pyloric ligation induced ulcer model; type: in vivo, rats
Method: 1. Animals were fasted for 24 hours in the raised mesh bottom cages to prevent coprophagia and were allowed free access to water. 2. The control group of rats was feed with the vehicle and the experimental groups with their respective drugs 45 minutes prior to the ligation. 3. The animal was anesthetized, abdomen was cut opened under xiphoid process, and the pyloric portion of the stomach was slightly lifted and ligated avoiding any damage to the adjacent blood vessels (According to the method of Shay et al. 1945). 4. The animals were stitched and kept for 4 hours with free access to water. 5. After 4 hours the animals were sacrificed under ether anesthesia and the stomach was dissected out incised along the greater curvature. 6. The stomach was washed thoroughly and the ulcer index was scored as per in other ulcer models.

[2] = system: Alcohol induced gastric ulcers; experiment: Alcohol (ethanol) induced gastric ulcers in rats; type: in vivo
Method: 1. Adult rats of either sex were taken; weighing 150-175 grams were fasted for 24 hours with free access to water.
2. The test drugs were administered (p.o.) 45 minutes before alcohol administration.
3.1 ml of chilled absolute alcohol was administered (p.o.) to the rats (According to the Wittetal).
4. Immediately after 1 hour, the animals were anesthetized, abdomen was cut opened stomach was taken out and incised along the greater curvature to observe the gastric lesions.
The ulcers are examined under the 5× magnification with the help of magnascope.
Absolute ethanol lesions appears as blackish lesions grouped in patches of varying size, usually parallel to the major axis of the stomach.
5. The lengths of the lesions are measured and summated to give a total lesion score, then calculated and expressed in percentage.

[3] = system: Aspirin induced gastric ulcer; experiment: Aspirin induced gastric ulcer model; type: in vivo, rats
Method: Gastric ulceration was induced by aspirin according to the method of Djahanguiri (1969). Aspirin (150 mg/Kg.) was administered per orally as a suspension in gum-acacia and the animal was sacrificed 5 hr. after the aspirin treatment and the ulcer index with protection index were calculated.

[4] = system: histamine induced duodenal ulcer; experiment: Histamine induced duodenal ulcer model; type: in vivo, Guinea pig
Method: 1. Animals were fasted for 24 hours with access to water.
2. The drug was given orally 1 hour prior to the histamine administration.
3. Histamine was administered in a dose of 0.25 mg/Kg, i.m. at 30 minutes interval for 7 times and it induced 100% duodenal ulceration in guinea pig (According to the method of Watt and Eagleton 1964).
4. The animals were sacrificed after half an hour of last injection under ether anesthesia.
5. The stomach along with duodenum were removed washed thoroughly and examined for the lesions. Ulcer index and protection index were calculated.

[5] = system: Cold Restraint Ulcer (CRU); experiment: Cold Restraint Ulcers (CRU) model; type: in vivo, rats
Method: Adult rats of either sex, weighing 150-175 grams are fasted for 24 hours in metallic cages with raised mesh bottoms to prevent coprophagia and were allowed free access to water. The test drugs were administered 45 minutes before immobilizing the animals. The rats were immobilized in the restraint cage and kept at 4° C. in BOD incubator for 2 hours (According to the method of Senay and Levine 1967). The animals were sacrificed immediately after the restraint period. The abdomen was cut opened; stomach was taken out and incised along the greater curvature to observe the gastric lesions with the help of Magnascope (5× magnification)
The following arbitrary scoring system was used to grade the severity and intensity of the lesions:
1. Shedding of epithelium=10
2. Petechial and frank hemorrhages=20
4. More than two ulcers=40
The presence of any of these lesions was considered as a positive ulcerogenic response which has been shown as percentage of rats showing gastric lesions. The severity of ulcers is expressed in terms of ulcer index, which is the mean score of gastric lesions of all the rats in a group. The term Ulcer Index is defined as:
Ulcer Index (U.I.)=Us+Up×10^−1
where Us=Mean severity of ulcer score and
Up=Percentage of animals with Ulcer incidences
The percentage protection is calculated as follows:
Percentage protection=(C−T/C)×100.
where C=Number of animals showing ulcer response in control group and
T=Number of animals showing ulcer response in test group.

[6] = Aspirin 150 mg/Kg p.o., 20 mg/Kg

COc1ccc2[nH]c([S+]([O-])Cc3ncc(C)c(OC)c3C)nc2c1 (centres unmarked) [Omeprazole]
Ulcer index ([1]; Ligation, 10 mg/Kg p.o.): 6.6
Protection index ([1]; Ligation, 10 mg/Kg p.o., versus ligation control): 51.44
Percentage protection in respect to the protection of Omeprazole ([1]; pyloric ligation induced ulcer, Omeprazole taken as 100%): 100%
Length of hemorrhagic bands (mm ± SE) ([2]; 100 mg/Kg p.o. + Ethanol): 56.0 ± 9.12 mm
Percentage protection in respect to the protection of Omeprazole ([2]; Alcohol induced ulcer, omeprazole taken as 100%): 100.0%
Mean severity of ulcer score [3, 6]: 6.6
Percentage of ulcer incidence (No. of rats showing ulcer/total No. of rats used) [3, 6]: 50 (3/6) %
Ulcer index [3, 6]: 5.66
Ulcer severity score 10 (Shedding of epithelium), No. of rats showing lesions/No. of rats tested [3, 6]: 2/6
Ulcer severity score 20 (Petechial and frank hemorrhages), No. of rats showing lesions/No. of rats tested [3, 6]: 1/6
Protection index ([3]; Aspirin 150 mg/Kg p.o., 20 mg/Kg, versus aspirin control): 54.81
Percentage protection in respect to the protection of Omeprazole ([3]; aspirin induced ulcer, 10 mg/Kg, standard taken as 100%): 100%
Mean severity of ulcer score ([4]; Histamine i.m., 10 mg/Kg p.o.): 6.66
Percentage of ulcer incidence (No. of animals showing ulcer/total No. of animals used) ([4]; Histamine i.m., 10 mg/Kg p.o.): 33.33 (1/3) %
Ulcer index ([4]; Histamine i.m., 10 mg/Kg p.o.): 3.99
Ulcer severity score 20, No. Guinea pig showing lesions/No. Guinea pig tested ([4]; Histamine i.m., 10 mg/Kg p.o.): 1/3
Volume of gastric fluid ([4]; Histamine i.m., 10 mg/Kg p.o.): 1.0 ± 0.2 mL
% Protection ([4]; Histamine i.m., 10 mg/Kg p.o., versus ulcer control): 70.79%
Percentage protection in respect to the protection of Omeprazole ([4]; histamine induced duodenal ulcer, Omeprazole taken as 100%): 100%
Mean severity of ulcer score ([5]; 10 mg/Kg p.o.): 07
Percentage of ulcer incidence (No. of rats showing ulcer/total No. of rats used) ([5]; 10 mg/Kg p.o.): 50 (5/10) %
Ulcer index ([5]; 10 mg/Kg p.o.): 5.7
Ulcer severity score 10 (Shedding of epithelium), No. of rats showing lesions/No. of rats tested ([5]; 10 mg/Kg p.o.): 3/10
Ulcer severity score 20 (Petechial and frank hemorrhages), No. of rats showing lesions/No. of rats tested ([5]; 10 mg/Kg p.o.): 2/10
Protection index ([5]; 10 mg/Kg p.o., versus CRU control): 54.03
Percentage protection in respect to the protection of Omeprazole ([5]; 10 mg/Kg, standard taken as 100%): 100%
